# From US20200102264A1, “MARMELIN ANALOGS AND METHODS OF USE IN CANCER TREATMENT” (THE UNIVERSITY OF KANSAS, priority 2014, published 2020)
# pIC50: −log10 of the molar value. Entries after “also recorded” stand apart in the source; their conditions may differ.
# Legend:
# HCT116 cells [1] = assay: cell cycle analysis, HCT116; assay type: cell-based; conditions: for cell cycle effect (in words): HCT116 cells
# [2] = tested on: MiaPaCa-2 pancreatic cancer cells; assay: hexoseaminidase cell proliferation assay, MiaPaCa-2; assay type: cell-based
# Experimental: (§1) Using hexoseaminidase assay, we determined the effect of the compounds on cell proliferation. […] The IC50 value at 48 hours is below 10 μM in all the cancer cell lines.
# (§2) Using hexoseaminidase assay, we determined the effect of the compounds on cell proliferation. […] The MRL16 IC50 value at 48 hours is below 0.3 μM in Colon cancer cell lines. […] Overall, the analogs can be used as chemotherapeutic agents against colon and pancreatic cancer.
# SW480 colon cancer cells = assay: hexoseaminidase cell proliferation assay, SW480; assay type: cell-based
# Source text: (§3) Using hexoseaminidase assay, we determined the effect of the compounds on cell proliferation. […]
# (§4) Using hexoseaminidase assay, we determined the effect of the compounds on cell proliferation. […] […] […] Overall, the analogs can be used as chemotherapeutic agents against colon and pancreatic cancer.
# HCT116 cells [3] = assay: colonosphere formation, HCT116; assay type: cell-based
# Source text: These compounds may be preferred in some instances.
# SW480 cells [4] = assay: cell cycle analysis, SW480; assay type: cell-based
# Experimental: The analogs were tested to determine the ability induce death of colon cancer cells.
# HCT116 cells [5] = assay: colony formation, HCT116; assay type: cell-based
# [6] = tested on: colon, pancreatic and bladder cancer cells; assay: hexoseaminidase cell proliferation assay, summaries over cell lines; assay type: cell-based; conditions: for inhibition of cell proliferation (in words): dose and time dependent
# Experimental: Water solubility studies were performed with the CD/analog complexes. […] The observed IC50 value of THBCD at 48 h is below 10 μM in all the colon, pancreatic and bladder cancer cells.
# as §1, §2
# [7] = tested on: HCT116 colon cancer tumor xenografts; assay: HCT116 colon cancer tumor xenografts in nude mice; assay type: in vivo; conditions: intraperitoneal 2 mg/kg body weight every day for 21 days
# Experimental: (§5) For in vivo, HCT116 cells were injected into the blanks of nude mice, after one week when there was a palpable tumor and these compounds were injected intraperitonially (5 mg/kg body weight) every day for 21 days. Tumor volumes were measured weekly. On 29th day mice were euthanized and the tumors were removed and weighed for use in histology, immunohistochemistry, and gene expression studies. Both THB and THBCD inhibited growth of the tumor. It is noted that the images of FIG. 4C are from left to right: control; THB; and THBCD.
# as §5, with “DBQ” for “Both THB and THBCD”, “inhibited the” for “inhibited”, “16C” for “4C”, “control;” for “control; THB;”, “DBQ.” for “THBCD.”
# FIGS. 19A and 19B show MRL 16 inhibits tumor growth, such as on colon cancer tumor xenografts. For in vivo, HCT116 cells were injected into the blanks of nude mice, after one week when there was a palpable tumor and these compounds were injected intraperitonially (2 mg/kg body weight) every day for 21 days. Tumor volumes were measured weekly. On 29th day mice were euthanized and the tumors were removed and weighed. MRL16 inhibited growth of the tumor.
# [8] = tested on: PanC-1 pancreatic cancer cells; assay: hexoseaminidase cell proliferation assay, PanC-1; assay type: cell-based
# Experimental: as §1, §2
# [9] = tested on: HCT116 colon cancer cells; assay: hexoseaminidase cell proliferation assay, HCT116; assay type: cell-based
# Source text: as §3, §4
# SW480 cells [10] = assay: colony formation, SW480; assay type: cell-based
# cancer stem cells = assay: colonosphere formation; assay type: cell-based
# Experimental: It was also determined the analogs inhibit colonosphere formation from cancer stem cells. […] The columns are 0, 10, 25, and 50 micromolar concentrations of the compounds labeled by rows.
# The effect of the compounds on colonosphere formation was determined. […] Overall, the analogs have shown they can be used as chemotherapeutic agents against colon, pancreatic and bladder cancer.
# [11] = Homo sapiens, MIA PaCa-2, MiaPaCa-2, 24 h
# [12] = Homo sapiens, MIA PaCa-2, MiaPaCa-2, 48 h
# [13] = Homo sapiens, MIA PaCa-2, MiaPaCa-2, 72 h
# [14] = Homo sapiens, HCT-116, HCT116, 24 h
# [15] = Homo sapiens, HCT-116, HCT116, 48 h
# [16] = Homo sapiens, HCT-116, HCT116, 72 h
structure (smiles),measurement,setting,value
C/C(=N\NC(=O)c1ccncc1)c1ccc2ccccc2c1O [MRL16],G0/G1 (%),"HCT116 cells [1]; HCT116, 24 h",57.3%
same,G2/M (%),"HCT116 cells [1]; HCT116, 24 h",26.9%
same,S (%),"HCT116 cells [1]; HCT116, 24 h",14.5%
same,SubG0 Dead Cells (%),"HCT116 cells [1]; HCT116, 24 h",1.11%
same,G0/G1 (%),"HCT116 cells [1]; HCT116, 48 h",63.7%
same,G2/M (%),"HCT116 cells [1]; HCT116, 48 h",19.9%
same,S (%),"HCT116 cells [1]; HCT116, 48 h",14.4%
same,SubG0 Dead Cells (%),"HCT116 cells [1]; HCT116, 48 h",1.70%
same,cell cycle effect (in words),HCT116 cells [1],induces G2/M arrest
same,pIC50,[2]; [11],< 5.00
same,pIC50,[2]; [12],< 5.00
same,pIC50,[2]; [13],5.30
same,pIC50,"SW480 colon cancer cells; Homo sapiens, SW480, 24 h",< 5.70
same,pIC50,"SW480 colon cancer cells; Homo sapiens, SW480, 48 h",6.52
same,pIC50,"SW480 colon cancer cells; Homo sapiens, SW480, 72 h",6.70
same,colonosphere formation,HCT116 cells [3],inhibits colonosphere formation
same,G0/G1 (%),"SW480 cells [4]; SW480, 24 h",59.8%
same,G2M/ (%),"SW480 cells [4]; SW480, 24 h",19.7%
same,S (%),"SW480 cells [4]; SW480, 24 h",19.7%
same,SubG0 Dead Cells (%),"SW480 cells [4]; SW480, 24 h",0.77%
same,cell cycle effect (in words),"SW480 cells [4]; SW480, 24 h",induces G1 arrest
same,G0/G1 (%),"SW480 cells [4]; SW480, 48 h",58.4%
same,G2M/ (%),"SW480 cells [4]; SW480, 48 h",20.1%
same,S (%),"SW480 cells [4]; SW480, 48 h",20.0%
same,SubG0 Dead Cells (%),"SW480 cells [4]; SW480, 48 h",1.05%
same,cell cycle effect (in words),"SW480 cells [4]; SW480, 48 h",S-phase arrest
same,colony formation,HCT116 cells [5],inhibit colony formation
same,pIC50,"[6]; 48 hours, Colon cancer cell lines",> 6.52
same,inhibition of cell proliferation (in words),[6],potent inhibitor
same,tumor volume,[7],significantly reduced
same,tumor weight,[7],significantly reduced
same,pIC50,"[8]; Homo sapiens, PANC-1, 24 h",< 5.00
same,pIC50,"[8]; Homo sapiens, PANC-1, 48 h",5.40
same,pIC50,"[8]; Homo sapiens, PANC-1, 72 h",5.60
same,pIC50,[9]; [14],< 5.70
same,pIC50,[9]; [15],6.52
same,pIC50,[9]; [16],6.70
C/C(=N\NC(=O)c1cccnc1)c1ccc2ccccc2c1O [MRL17],G0/G1 (%),"HCT116 cells [1]; HCT116, 24 h",63.9%
same,G2/M (%),"HCT116 cells [1]; HCT116, 24 h",20.9%
same,S (%),"HCT116 cells [1]; HCT116, 24 h",14.0%
same,SubG0 Dead Cells (%),"HCT116 cells [1]; HCT116, 24 h",0.99%
same,G0/G1 (%),"HCT116 cells [1]; HCT116, 48 h",63.1%
same,G2/M (%),"HCT116 cells [1]; HCT116, 48 h",20.8%
same,S (%),"HCT116 cells [1]; HCT116, 48 h",14.3%
same,SubG0 Dead Cells (%),"HCT116 cells [1]; HCT116, 48 h",1.57%
same,cell cycle effect (in words),HCT116 cells [1],induces G2/M arrest
same,pIC50,[2]; [11],< 5.00
same,pIC50,[2]; [12],< 5.00
same,pIC50,[2]; [13],5.30
same,pIC50,"SW480 colon cancer cells; Homo sapiens, SW480, 24 h",< 5.70
same,pIC50,"SW480 colon cancer cells; Homo sapiens, SW480, 48 h",6.00
same,pIC50,"SW480 colon cancer cells; Homo sapiens, SW480, 72 h",6.22
same,colonosphere formation,HCT116 cells [3],inhibits colonosphere formation
same,G0/G1 (%),"SW480 cells [4]; SW480, 24 h",54.9%
same,G2M/ (%),"SW480 cells [4]; SW480, 24 h",22.0%
same,S (%),"SW480 cells [4]; SW480, 24 h",22.3%
same,SubG0 Dead Cells (%),"SW480 cells [4]; SW480, 24 h",0.50%
same,cell cycle effect (in words),"SW480 cells [4]; SW480, 24 h",induces G1 arrest
same,G0/G1 (%),"SW480 cells [4]; SW480, 48 h",59.3%
same,G2M/ (%),"SW480 cells [4]; SW480, 48 h",18.3%
same,S (%),"SW480 cells [4]; SW480, 48 h",20.8%
same,SubG0 Dead Cells (%),"SW480 cells [4]; SW480, 48 h",1.12%
same,cell cycle effect (in words),"SW480 cells [4]; SW480, 48 h",S-phase arrest
same,colony formation,HCT116 cells [5],inhibit colony formation
same,inhibition of cell proliferation (in words),[6],potent inhibitor
same,pIC50,"[8]; Homo sapiens, PANC-1, 24 h",< 5.00
same,pIC50,"[8]; Homo sapiens, PANC-1, 48 h",5.52
same,pIC50,"[8]; Homo sapiens, PANC-1, 72 h",6.00
same,pIC50,[9]; [14],< 5.70
same,pIC50,[9]; [15],6.00
same,pIC50,[9]; [16],6.10
O=C(N/N=C/c1ccc(O)c(O)c1)c1cc2ccccc2cc1O [MRL DHB],G0/G1 (%),"HCT116 cells [1]; HCT116, Table 3",40.7%
same,G2M (%),"HCT116 cells [1]; HCT116, Table 3",10.4%
same,S (%),"HCT116 cells [1]; HCT116, Table 3",13.0%
same,SubG0 Dead Cells (%),"HCT116 cells [1]; HCT116, Table 3",34.2%
same,pIC50,"[2]; MiaPaCa-2, 24 h",< 4.30
same,pIC50,"[2]; MiaPaCa-2, 48 h",4.60
same,pIC50,"[2]; MiaPaCa-2, 72 h",5.00
same,pIC50,"[2]; MiaPaCa-2, 72 h, listed as DHB",4.60
same,pIC50,"SW480 colon cancer cells; SW480, 24 h",< 4.30
same,pIC50,"SW480 colon cancer cells; SW480, 48 h",< 4.30
same,pIC50,"SW480 colon cancer cells; SW480, 72 h",4.82
same,G0/G1 (%),"SW480 cells [4]; SW480, Table 3",60.7%
same,G2M (%),"SW480 cells [4]; SW480, Table 3",18.4%
same,S (%),"SW480 cells [4]; SW480, Table 3",14.1%
same,SubG0 Dead Cells (%),"SW480 cells [4]; SW480, Table 3",6.1%
same,colony formation,SW480 cells [10],significantly inhibited colony formation
same,colony formation,HCT116 cells [5],significantly inhibited colony formation
same,inhibition of cell proliferation (in words),[6],potent inhibitor of proliferation of pancreatic cancer cells; also recorded: inhibit proliferation
same,pIC50,"[8]; PanC-1, 24 h",< 4.30
same,pIC50,"[8]; PanC-1, 48 h",4.82
same,pIC50,"[8]; PanC-1, 48 h, listed as DHB",5.00
same,pIC50,"[8]; PanC-1, 72 h",5.10
same,colonosphere formation,cancer stem cells,significantly inhibited colonosphere formation
same,pIC50,"[9]; HCT116, 24 h",< 4.30
same,pIC50,"[9]; HCT116, 48 h",< 4.30
